This note sets out measurements from patent US20190233825A1, “METHODS OF MODULATING CYTOSOLIC DNA SURVEILLANCE MOLECULES” (BAYER ANIMAL HEALTH GMBH, priority 2015, published 2019).

One assay concerns I-ISG54 promoter. In words: SEAP reporter assay in B16-Blue ISG cells. The assay is classed as cell-based, murine. The source says:
B16-Blue™ ISG cells were derived from the murine B16 F1 melanoma cell line. They express the secreted embryonic alkaline phosphatase (SEAP) reporter gene under the control of the I-ISG54 promoter which is comprised of the IFN-inducible ISG54 promoter enhanced by a multimeric ISRE. Stimulation of B16-Blue™ ISG cells with IFNs, cyclic dinucleotides, such as cGAMP, or type I IFN inducers, such as transfected poly(dA:dT), triggers the activation of the I-ISG54 promoter and the production of SEAP.
Background: In a reporter assay the amount or activity of a reporter protein is the signal.

For assay [1], the system named is BRD. In words: Metaphylaxis study in feedlot calves at medium risk of BRD versus Micotil. Conditions: calves observed for 56 days.
Protocol: Weaned beef calves with an average weight of 590 lbs and determined to be at medium risk for BRD were selected for this study.
Morbidity, mortality, average daily gain (ADG), dry matter intake (DMI), and feed to weight gain ratio were measured and compared between the study groups.
In the next assay the test system is STING. In words: SEAP reporter assay in B16-Blue ISG-KO-STING cells. The assay is classed as cell-based, murine.
Assay [2] has as its system BRD. In words: BRD treatment study in beef calves: Draxxin, Seq No 2-F, combination. The assay is classed as in vivo, cattle. Conditions: 56 days after diagnosis. The procedure: The purpose of this study was to compare the effectiveness of Draxxin®, Draxxin® and Seq No 2-F, or Seq No 2-F alone in cattle diagnosed with BRD.
The first group was administered 1.1 ml/cwt of Draxxin® subcutaneously at the time of diagnosis. […] A 3 day moratorium followed treatment, and the study concluded 56 days after the diagnosis.

Assay [3] has as its system BRD. In words: BRD treatment study in heifers: Baytril 100, Seq No 2-F, combination. Conditions: observed until day 60 post-diagnosis. The assay is classed as in vivo, cattle.
Assay [4] concerns interferon regulatory factor 3 (IRF-3). In words: IRF-inducible SEAP reporter assay in THP1-Blue ISG (IRF-THP-1) cells.
Description: A human macrophage-like (monocyte) cell line (THP-1), derived from an acute monocytic leukemia patient, is used as a model system for monocyte function. THP1-Blue ISG cells (Invitrogen) were generated by stable integration of an interferon regulatory factor (IRF)-inducible secretory alkaline phosphatase (SEAP) reporter construct (IRF-THP1 cells). The THP-1 cells endogenously contain functional STING (Simulator of interferon genes) pathway molecules, as well as cytosolic DNA recognition receptors. STING receives signals from and is itself a cytosolic DNA surveillance molecule that acts through IRF-3. Activation of STING leads to SEAP production, which is then detectable in the culture supernatant. Thus, activation of the IRF-3 reporter SEAP construct correlates to activation of the STING pathway.
The stably transfected IRF-THP-1 cell line was tested for its functionality by IFN-α1, which is a global activator of different IRF pathways. IRF-THP-1 cells were contacted with human interferon α1 (IFN α1) as a positive control for IRF-3 activation. […] FIG. 4 graphically illustrates IFN α1 activation of IRF-3.

Description for STING: B16-Blue™ ISG-KO-STING cells were generated from the B16-Blue™ ISG cell line, a murine B16-F1 melanoma-derived cell line, through stable knockout of the STING gene. They express the secreted embryonic alkaline phosphatase (SEAP) reporter gene under the control of the I-ISG54 promoter which is comprised of the IFN-inducible ISG54 promoter enhanced by a multimeric ISRE. […] Stimulation of these cells with IFN triggers the activation of the I-ISG54 promoter and the production of SEAP.
Referring to FIG. 26, known STING pathways activators, Herpes simplex virus DNA complexed with LyoVec (HSV-LyoVec) and the cyclic dinucleotide 2′,3′-cGAMP were used to validate cell line properties.

Take `Nc1nc2c(ncn2[C@@H]2O[C@@H]3COP(=O)(O)O[C@H]4[C@@H](O)[C@H](n5cnc6c(N)ncnc65)O[C@@H]4COP(=O)(O)O[C@H]3[C@H]2O)c(=O)[nH]1` [3′,3′-cGAMP]: in the assay with I-ISG54 promoter (controls, FIG. 21), the SEAP signal result is on record as “expected specific signals”.

Turning to `CC[C@H]1OC(=O)C[C@@H](O)[C@H](C)[C@@H](O[C@@H]2O[C@H](C)[C@@H](O)[C@H](N(C)C)[C@H]2O)[C@@H](CCN2C[C@H](C)C[C@H](C)C2)C[C@@H](C)C(=O)/C=C/C(C)=C/[C@@H]1CO[C@@H]1O[C@H](C)[C@@H](O)[C@@H](OC)[C@H]1OC` [Micotil], in the assay on BRD [1], the ADG stood at 2.96, the “BRD Chronicity” value came to 27.90%, the BRD case-fatality is 3.95% and the BRD repulls came out at 17.9%. In the assay on BRD [1], the DMI is 12.96, the “Feed: Gain” value was 4.50, the “Overall BRD Mortality” value is recorded as 0.44% and the “Time to BRD Dx” value was determined as 28.1.

Turning to `Nc1nc2c(ncn2[C@@H]2O[C@@H]3COP(=O)(O)O[C@H]4[C@@H](O)[C@H](n5cnc6c(N)ncnc65)O[C@@H]4COP(=O)(O)O[C@@H]2[C@@H]3O)c(=O)[nH]1` [2′,3′-cGAMP], the “signal (interferon-response element readout)” value in the assay on I-ISG54 promoter (parental B16-Blue ISG cell line, FIG. 26) was “significant signals”; with STING, “completely abrogated”.

`CCCNC[C@]1(O)[C@H](C)O[C@@H](O[C@H]2[C@H](C)[C@@H](O[C@@H]3O[C@H](C)C[C@H](N(C)C)[C@H]3O)[C@](C)(O)C[C@@H](C)CN[C@H](C)[C@@H](O)[C@](C)(O)[C@@H](CC)OC(=O)[C@@H]2C)C[C@@]1(C)OC` [Draxxin, tulathromycin]: in the assay with BRD [2], the “ADG (deads in)” value is reported as 3.2 lbs/day, the “ADG (deads out)” value turned out to be 3.3 lbs/day, the “Avg wt gain (deads in)” value was found to be 181.1 lbs and the “Avg wt gain (deads out)” value came to 187.0 lbs. In the assay with BRD [2], the BRD Chronicity stood at 4.0%, the BRD case-fatality is 1.3%, the BRD morbidity stood at 29.2% and the BRD repulls stood at 37.2%. The “Time to BRD Dx” value in the assay with BRD [2] was 18.8 days.

With `CCN1CCN(c2cc3c(cc2F)c(=O)c(C(=O)O)cn3C2CC2)CC1` [Baytril 100, enrofloxacin], in the assay with BRD [3], the “ADG (deads out)” value came to 1.8 lbs/day, the “Avg wt gain (deads in)” value is reported as 24.3 lbs, the “Avg wt gain (deads out)” value is recorded as 87.00 lbs and the “BRD Chronicity” value came out at 22.10%. In the assay with BRD [3], the BRD case-fatality is given as 10.0% and the BRD repulls worked out at 44.8%.

B1: IFN-α1: human interferon α1, positive control, global activator of different IRF pathways (protein, UniProt P01562 24-189, looked up)
Interferon alpha-1/13: CDLPETHSLDNRRTLMLLAQMSRISPSSCLMDRHDFGFPQEEFDGNQFQKAPAISVLHELIQQIFNLFTTKDSSAAWDEDLLDKFCTELYQQLNDLEACVMQEERVGETPLMNADSILAVKKYFRRITLYLTEKKYSPCAWEVVRAEIMRSLSLSTNLQERLRRKE
In the case of B1, the SEAP signal result in the assay with I-ISG54 promoter (IFN-α1 dosing, FIG. 20) was “clear dose-response relationship”; in assay [4] (IFN-α1 dosing, FIG. 4), “clear dose-response relationship”. For the same molecule, the “SEAP signal, dose-response curve” value in assay [4] (1.5625-50 μg/ml, FIG. 11) was “dose-dependent response”.
